Our source for the RP-LC retention time values is the METLIN SMRT retention time set (Domingo-Almenara et al. 2019).

A short description of this data set: gradient 5% acetonitrile 3 min, to 50% in 2 min, to 85% in 15 min, held 3 min, 100 µL/min. The conditions noted are these: column: Zorbax Extend-C18 2.1 x 50 mm; eluents: water / acetonitrile, 0.1% formic acid. A digest of the protocol:
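Each retention time is based on an adduct peak selected computationally and verified by manual inspection. Measurements used HPLC–quadrupole time-of-flight mass spectrometry in positive and negative ionization mode on mixtures of ~100 pure standards. Chromatography ran on a Zorbax Extend-C18 column (2.1 × 50 mm, 1.8 μm) at 100 μL/min with water and acetonitrile, each containing 0.1% formic acid, and dead and dwell volumes of 40 μL and 900 μL.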
As to `CCCN(C)c1nccn2c(=O)n(CC(=O)Nc3ccc(C)cc3Cl)nc12`, the RP-LC retention time was 736 s. The figure for `O=C(NCc1cccc(Br)c1)c1nc(Cn2c(=O)oc3ccccc32)no1` is 895 s. Next, `CCC(CC)C(=O)N1CCN(c2nc(CN3CCOCC3)cs2)CC1`: 597 s; `CC(C)(C)c1cc(C(=O)NCc2cccnc2)nc2ccnn12`: 657 s; `COCCN1CCCc2ccc(NC(=O)c3ccc(Br)o3)cc21`: 913 s. Next, `CC(C)c1noc(C2(NC(=O)c3cccc(F)c3)CCCCC2)n1`: 1040 s; `Cc1cc(=O)n(CC(=O)Nc2cccc(F)c2)c(N2CCCC2)n1`: 634 s. As for `CCC(C)NC(=O)N1CC(n2cc(C(=O)N3CCOCC3)nn2)C1` (centres undefined), the RP-LC retention time is 608 s. Next, `O=C(c1cc(-c2cccnc2)n[nH]1)N1CCN(C(=O)C2CCC2)CC1`: 581 s. The figure for `COc1ccc(Oc2cc3c(cc2NS(=O)(=O)c2ccc(OC)c(OC)c2)n(C)c(=O)n3C)cc1` is 821 s; for `O=C(NC1CCCC1)C1CCCN(c2ccc3cc(S(=O)(=O)N4CCCCC4)ccc3n2)C1` (centres undefined) it is 781 s; for `Cc1ccc2c(c1)C(=O)NC1(CCN(C(=O)c3ccc(C(F)(F)F)cc3)CC1)N2C` it is 871 s. Regarding `Cc1ccc(S(=O)(=O)N2C(=O)CCC2C(=O)NCc2ccc(Cl)cc2)cc1C` (centres undefined), the RP-LC retention time was 966 s.

Consider `O=C(CCc1ccc2cc[nH]c2c1)NCc1cc(F)cc(F)c1`, for which the RP-LC retention time is 848 s. The figure for `CCc1nnc2nc(N3CCN(C(=O)c4ccc(Br)cc4)CC3)cc(C)n12` is 638 s; for `Cc1nc2c(sc3nc(-c4ccccc4)ccc32)c(=O)n1CC(=O)Nc1cccc(C(F)(F)F)c1` it is 1160 s.

The compound `CNC(=O)[C@@H]1CN(C(=O)CCc2cc(OC)no2)C[C@H]1c1nc(C)no1` showed an RP-LC retention time of 620 s. The compound `Cc1cccc(-n2c(=O)c3c(cc(C)n3C)n(CC(=O)Nc3cc(Cl)ccc3C)c2=O)c1` showed an RP-LC retention time of 960 s. Next, `COc1ccc2c(c1)C1(CCN(C(=O)NCc3ccc(F)cc3)C1)C(=O)N2` (centres undefined): 697 s; `CCn1cc(S(=O)(=O)N2CCCn3nc(-c4ccc(OC)cc4)cc3C2)cn1`: 805 s; `O=C(NCCN1CCOCC1)c1cccc(Nc2c(-c3ccccc3)nc3cnccn23)c1`: 589 s. Next, `Cc1ccc(-n2nc(N3CCCC(C(=O)Nc4cc(F)ccc4F)C3)ccc2=O)cc1Cl` (centres undefined): 1060 s; `CN1C(=O)c2cccn2CC1C(=O)NCc1ccc2c(c1)OCO2` (centres undefined): 657 s. Next, `Fc1ccc(CN2CCC3(CC2)N=C(C2CC2)NO3)cc1`: 583 s; `CCc1nc(-c2ccc(S(=O)(=O)N3CCC(C(=O)NCc4cccs4)CC3)cc2)no1`: 917 s.

With `Cc1cc(C)cc(C(=O)NC2CCN(c3cc(-c4ccc(F)cc4)[nH]n3)C2)c1` (centres undefined), the RP-LC retention time was found to be 795 s. On to `CN1C(=O)[C@H]2CN(Cc3ccc(Cl)cc3)C[C@H]2C1=O`, for which the RP-LC retention time turned out to be 598 s. Next, `COc1ccc(-c2nc(C)cc(C)c2CNC(=O)C(C)(C)C)cc1`: 613 s. For the compound `COCc1nc(-c2ccc(OC3CN(Cc4ccncc4)C3)cc2)no1`, the RP-LC retention time came to 589 s. `Cc1ccc(-c2nc(Nc3ccccc3Cl)sc2CC(=O)O)cc1` had an RP-LC retention time of 1040 s. The figure for `CCCS(=O)(=O)N1CCOc2ccc(CN3CCc4ccccc4C3)cc2C1` is 596 s; for `COc1ccc(-c2noc(CN3C(=O)COc4ccccc43)n2)c(OC)c1` it is 887 s. Compound `CCc1nn2c(CNC(=O)c3cccn3C)c(-c3ccccc3)nc2s1` displayed an RP-LC retention time of 882 s. The figure for `O=C(Nc1ccc(F)cc1)N1CCC(N2CCN(Cc3ccccc3)C2=O)CC1` is 794 s; for `Cn1c(=O)oc2cc(-c3noc(-c4ccc(CS(=O)(=O)c5ccccc5)cc4)n3)ccc21` it is 959 s. The compound `Cc1ccc(NC(=O)Nc2ccc3nnc(C)n3c2)c(C)c1` displayed an RP-LC retention time of 695 s. In turn, `O=C(NCCCN1CCCCC1)c1cc2n(n1)CCCN(Cc1ccccc1)C2=O` registered an RP-LC retention time of 569 s.

`CCn1c(=O)c(C(=O)NCc2ccc(F)cc2)nc2cccnc21` yielded an RP-LC retention time of 790 s. Next, `O=C(CCN1C(=O)c2cccc3cccc(c23)C1=O)NC1CCS(=O)(=O)C1` (centres undefined): 641 s; `O=C(NC1CC1)c1ccc(OCC2CCCN2C(=O)c2ccccc2C(F)(F)F)cc1` (centres undefined): 832 s. Next, `N#Cc1cccc(C(=O)N2CCCn3nc(-c4cccs4)cc3C2)c1`: 720 s; `COc1ccc(-c2cc3nn(CC(=O)Nc4ccc(F)cc4Cl)c(=O)n3c(C)n2)cc1`: 970 s; `CCOc1ccc(-c2nc(CN3CCN(C(=O)NC4CCCC4)CC3)c(C)o2)cc1`: 703 s. Next, `COC(=O)c1[nH]c(C)c(C(=O)C(C)N(CC(C)C)C(=O)c2ccccc2Cl)c1C` (centres undefined): 932 s; `COc1cc(NC(=O)C2CCCN(c3nc(C)nc4oc(C)c(C)c34)C2)cc(OC)c1` (centres undefined): 915 s. The compound `O=C(CNC(=O)c1ccc(=O)[nH]c1)NCc1ccc(OCc2ccccc2)cc1` displayed an RP-LC retention time of 661 s. In the case of `CC1CCc2nc3ncn(CC(=O)NCc4cccc(Br)c4)c(=O)c3cc2C1` (centres undefined), the RP-LC retention time is 825 s. The figure for `O=C(NCC(c1ccco1)N1CCN(c2ccc(F)cc2)CC1)c1cnccn1` (centres undefined) is 585 s; for `Cc1oc(-c2[nH]ncc2C(=O)N2CCCC2)cc1S(=O)(=O)Nc1ccc(C(C)C)cc1` it is 835 s; for `Cc1cc(F)ccc1N1C(=O)CN(S(C)(=O)=O)CC1(C)C(=O)NCc1ccc(Cl)cc1` (centres undefined) it is 856 s.

In the case of `O=C(CN1C(=O)CCCc2cc(S(=O)(=O)N3CCOCC3)ccc21)N1CCc2ccccc2C1`, the RP-LC retention time was 786 s. Next, `COc1cc(NC(=O)c2cn(-c3cc(N4CCC(C)CC4)ncn3)cn2)cc(OC)c1`: 1110 s; `CCc1ccc(NS(=O)(=O)c2cc3n(c2)CCCN(CC)C3=O)cc1`: 801 s. Next, `Cc1cccc(CNS(=O)(=O)c2ccc3c(c2)C(=O)N(C)c2ncccc2O3)c1`: 886 s; `CCc1noc(COC2CCCN(C(=O)NCc3ccco3)C2)n1` (centres undefined): 722 s. The compound `CO[C@H]1C(=O)N(C(C)C)[C@H]1C1CCN(C(=O)c2cnn(C)c2)CC1` came in with an RP-LC retention time of 612 s. Next, `Cn1nc(C(=O)N2CC(c3nc(-c4cccs4)no3)C2)ccc1=O`: 639 s. Next, `CCCCNC(=O)Cn1c(=O)c2cnc(-c3ccc(Cl)cc3)nc2n(CC)c1=O`: 1050 s; `COc1ccc(NC(=O)N2C[C@@H](F)C[C@H]2C(=O)N2CCCCC2)c(OC)c1`: 687 s. The figure for `COCC(C)(O)CNC(=O)Cc1cccc(C)c1` (centres undefined) is 621 s; for `CCn1nccc1-c1cccc(-c2noc(-c3ccc(F)cc3F)n2)c1` it is 1270 s; for `Cc1ccc(Cn2nc3c(S(=O)(=O)N4CCN(c5ccc(F)cc5)CC4)cccn3c2=O)cc1` it is 1020 s. With `CCC(C)C(NC(=O)CCc1ccccc1OC)C(=O)Nc1nc2ccccc2[nH]1` (centres undefined), the RP-LC retention time is 783 s.

Take `O=C(Cc1csc2nc(-c3ccccc3)cn12)Nc1ccccc1`: the RP-LC retention time was 785 s. `Cn1nc(C(=O)NC2CCCN(c3cc(-c4ccc(Cl)cc4)[nH]n3)C2)c2ccccc21` (centres undefined) came in with an RP-LC retention time of 935 s.

Turning to `Cc1cc(Cl)ccc1NS(=O)(=O)c1cc(-c2[nH]ncc2C(=O)N2CCCC2)oc1C`, the RP-LC retention time amounted to 772 s.

As for `CCc1ccc(-n2nc(CO)c(C(=O)NC3CC3)n2)cc1`, the RP-LC retention time turned out to be 897 s.

Regarding `COC(=O)c1ccc(NC(=O)C(=O)NCc2ccccn2)cc1`, the RP-LC retention time amounted to 592 s.

As for `COC(=O)CNC(=O)NC(Cc1ccc(F)cc1)Cc1ccc2c(c1)OCO2` (centres undefined), the RP-LC retention time was 834 s. The figure for `O=C(NCCN1CCCCC1)c1csc(-c2ccnc(N3CCOCC3)c2)n1` is 566 s; for `Cc1ccc(Nc2nc(-c3ccc(C(C)C)cc3)cs2)nc1` it is 1130 s; for `CN(C)c1ccc(CNC(=O)c2ccc3c(c2)N(C)C(=O)C2CCCCN32)cc1` (centres undefined) it is 628 s. Consider `Cc1ccc(-c2ncc3c(=O)n(Cc4ccc(F)cc4)c(=O)n(C)c3n2)cc1`, for which the RP-LC retention time amounted to 1260 s. For `CCN1CCN(c2cc(C)c3cc(NC(=O)Cc4cccs4)ccc3n2)CC1`, the RP-LC retention time came to 578 s. `O=C(COc1ccccc1)N1CCCC(OCc2nc(C3CC3)no2)C1` (centres undefined) displayed an RP-LC retention time of 610 s. Next, `CCCC(=O)Nc1ccc(S(=O)(=O)NCCn2ncccc2=O)cc1`: 612 s. In the case of `Cc1nc(-c2csc(S(=O)(=O)N3CCC(C(=O)Nc4cccc(F)c4)CC3)c2)no1`, the RP-LC retention time worked out at 925 s. The figure for `Cc1ccc(S(=O)(=O)N2CCCC(Cn3c(C)nc4cccnc43)C2)cc1F` (centres undefined) is 725 s. Take `Cn1ncc(N2CCC(C(=O)Nc3ccccc3)C2)cc1=O` (centres undefined): the RP-LC retention time was found to be 648 s.
